Experimental data published in publication PMC11986180, “ZIF-8 Selective Dispersive Solid-Phase Extraction-LC-MS/MS Method for the Determination of Aconitine alkaloids in Rat Plasma: Application in Pharmacokinetic Studies” (Journal of Analytical Methods in Chemistry, 2025).
Read-outs that look alike come from different tables or passages of the source.

Legend:
[1] = Pharmacokinetics of aconitine alkaloids in rat plasma after oral administration of Fuzi extract (d-SPE-LC-MS/MS); assay type: in vivo, Sprague–Dawley rats; conditions: for AUC(0-inf) / AUC(0-t) / half-life / MRT last / MRT inf / Tmax: n = 6, oral (gastric gavage) 10 mg/kg Fuzi extract; for half-life: one-compartment model; for MRT last: read-out: MRT0-t; for MRT inf: read-out: MRT0-∞; for Cmax: oral 10 mg/kg Fuzi extract, read-out: maximum concentrations (Cmax); for Tmax: 10 mg/kg
Protocol: Male Sprague–Dawley rats (250–300 g, 8–10 weeks old) were procured from Shenzhen Bao'an Authentic TCM Therapy Hospital (Guangzhou, China) and acclimatized in a controlled environment (temperature: 25°C ± 2°C; humidity: 50% ± 5%; 12-h dark–light cycle) for at least 3 days before experimentation (Animal License Number: SCXK [Guangdong] 2022-0002). Laboratory animal compound feed (Guangdong Feeding Certificate: 2019, No. 05,073) was provided. All animal experiments were performed in accordance with the Guide for the Care and Use of Laboratory Animals by the National Institutes of Health. Ethical approval for the animal studies was obtained from the Ethics Committee of Sinopharm Dongfeng General Hospital. The animal protocols used in this study were approved by the Institutional Animal Care and Use Committee of Sinopharm Dongfeng General Hospital.
The crude powder of Fuzi (50 g) was decocted in 500 mL of water for 1 h to obtain the crude extract, which was then concentrated to 100 mL and stored at 4°C.
All rats were maintained under standard conditions with ad libitum access to food and water. They were divided into two groups: Group 1 was used to prepare blank plasma samples, and Group 2 was designated for pharmacokinetic studies. Drug-free rat plasma was collected via suborbital venous hemorrhage. Pharmacokinetic studies involved continuous blood sampling from the suborbital venous plexus, as described previously. Each rat was administered a 10 mg/kg dose of Fuzi extract via gastric gavage. Blood samples (200 μL) were collected at […] time points (0, 0.25, 0.50, 0.75, 1.0, 2.0, 3.0, 4.0, 6.0, 8.0, 10, 12, and 24 h postadministration) for pharmacokinetic analysis. The samples were collected into microtubes containing 5 μL of heparin, followed by centrifugation at 4000 rpm for 10 min. The resulting plasma ([…]) was separated and immediately frozen at −20°C for further analysis. Figure 2 illustrates the typical d-SPE–LC/MS profile of blank plasma and aconitine alkaloids, showing distinct peaks in rat plasma at 1 h postadministration without interference from endogenous peaks, thus maintaining a stable baseline for analyte and IS detection.
Before solid-phase extraction, ZIF-8 was activated by placing it in a vacuum-drying oven at 60°C for 24 h to remove surface-adsorbed water and other volatile substances. Rat plasma (100 μL) was combined with 350 μL of a 50% acetonitrile–water solution and 50 μL of yohimbine (IS). Following this, 15 mg of ZIF-8 was added to the mixture, which was then shaken for 18 min for extraction. After centrifugation, the adsorbent remained in the tube while the supernatant was discarded. Subsequently, 1000 μL of methanol was added to the tube, and ultrasonic elution of the nanocomposite was performed for 5 min. After centrifugation to collect the ZIF-8 nanocomposites, 900 μL of the eluent was evaporated using N2 flow at 40°C. The resulting residue was redissolved in 50 μL of methanol to obtain the final sample solution and analyzed by HPLC–MS/MS. The extraction process for aconitine alkaloids is depicted in Figure 3.
The pharmacokinetic parameters of aconitine alkaloids in rats were calculated using Phoenix WinNonlin 8.3 software. The maximum plasma concentration (Cmax) and the time to reach Cmax (Tmax) were directly derived from the experimental data. The elimination rate constant (Ke) was determined by linear regression of the terminal semilogarithmic plot of plasma concentration versus time, and the elimination half-life (t1/2) was calculated as 0.693/Ke. All data are presented as mean ± standard deviation.
The plasma concentrations of five aconitine alkaloid species from Fuzi were quantified using the present method. The peak plasma concentrations of aconitine, hypaconitine, mesaconitine, lappaconitine, and benzoylaconitine were reached within 0.75 h, indicating rapid absorption into the systemic circulation. […]

[2] = assay type: physicochemical, rat
Protocol: Aconitine, hypaconitine, mesaconitine, lappaconitine, benzoylaconitine, and yohimbine were individually dissolved in 10 mL of methanol to prepare the stock solution. These compounds were subsequently diluted with methanol to achieve final concentrations of 10 and 5.0 μg/mL to prepare the working standard solutions, which were stored at 4°C before use. Under the optimized conditions, 10 μL of the working standard solution and IS (5.0 μg/mL), along with 15 mg of ZIF-8, was added to 200 μL of blank rat plasma and various blank tissue homogenates. The final concentrations of the calibration standard samples were 0.3125, 0.625, 1.5625, 3.125, 6.25, 12.5, 25, 50, 100, 500, and 1000 ng/mL. Plasma quality control (QC) samples were prepared at concentrations of 0.625, 6.25, 10, and 50 ng/mL. Standard calibration samples and HPLC–MS samples were stored at −20°C until analysis.
Stability tests were conducted to replicate real-world conditions that samples are likely to encounter. […]

[3] = male, Sprague-Dawley, rat, plasma, po, read-out: Tmax
[4] = Automatic (24 h), plasma QC 6.25 ng/mL
[5] = Automatic (24 h), plasma QC 50 ng/mL
[6] = Freeze (−80°C for 30 d), plasma QC 6.25 ng/mL
[7] = Freeze (−80°C for 30 d), plasma QC 50 ng/mL
[8] = Freeze-thaw (three times), plasma QC 6.25 ng/mL
[9] = Freeze-thaw (three times), plasma QC 50 ng/mL
[10] = Room temperature (8 h), plasma QC 6.25 ng/mL
[11] = Room temperature (8 h), plasma QC 50 ng/mL

SMILES | AUC(0-inf) ([1]; male, Sprague-Dawley) [ng·h/mL] | AUC(0-t) ([1]; male, Sprague-Dawley) [ng·h/mL] | half-life ([1]; male, Sprague-Dawley) [h] | MRT last ([1]; male, Sprague-Dawley) [h] | MRT inf ([1]; male, Sprague-Dawley) [h] | Cmax ([1]; male, Sprague-Dawley) [ng/mL] | Tmax [1, 3] [h] | Tmax [1] [h] | Stability RE % [2, 4] [%] | Stability RE % [2, 5] [%] | Stability RE % [2, 6] [%] | Stability RE % [2, 7] [%] | Stability RE % [2, 8] [%] | Stability RE % [2, 9] [%] | Stability RE % [2, 10] [%] | Stability RE % [2, 11] [%] | further results
CCN1C[C@]2(COC)[C@H](O)C[C@H](OC)[C@@]34[C@@H]5C[C@@]6(O)[C@H](OC(=O)c7ccccc7)[C@@H]5[C@@](OC(C)=O)([C@@H]([C@H](OC)[C@H]23)[C@@H]14)[C@@H](O)[C@@H]6OC [Aconitine] | 26.9 ± 0.696 | 25.3 ± 0.566 | 5.77 ± 0.348 | 7.11 ± 0.143 | 8.59 ± 0.349 | 7.47 ± 0.732 | ≤ 0.75 | 0.5 | 4.19 | −10.01 | 4.94 | −9.37 | 3.96 | −8.46 | −1.08 | −8.69 | 
CCN1CC2(COC)C(O)CC(OC)C34C5CC6(O)C(OC)C(O)C(O)(C5C6OC(=O)c5ccccc5)C(C(OC)C23)C14 (stereo not shown) [Benzoylaconitine] | 14.1 ± 9.31 | 3.76 ± 0.0401 | 62.4 ± 57.4 | 9.95 ± 0.374 | 87.9 ± 79.7 | 0.939 ± 0.199 |  | 0.25 | −8.67 | −9.65 | −7.70 | −10.48 | −6.91 | −10.57 | −7.89 | −7.98 | 
COC[C@@]12CC[C@H](OC)[C@]34C(C([C@H](OC)[C@H]13)[C@]1(OC(C)=O)[C@H]3[C@@H](OC(=O)c5ccccc5)[C@](O)(C[C@H]34)[C@@H](OC)[C@@H]1O)N(C)C2 [Hypaconitine] | 80.5 ± 2.91 | 47.3 ± 1.33 | 21.2 ± 0.505 | 8.627 ± 0.0519 | 27.6 ± 0.562 | 9.92 ± 0.33 | ≤ 0.75 | 0.5 | −8.00 | 1.32 | −3.27 | −2.50 | 0.31 | 3.47 | −7.92 | −7.90 | 
CCN1CC2(OC(=O)c3ccccc3NC(C)=O)CCC(OC)C34C1C(CC23)C1(O)CC(OC)C2CC4C1(O)C2OC (stereo not shown) [Lappaconitine] | 2.421 ± 0.0223 | 2.4 ± 0.0276 | 3.83 ± 0.791 | 4.47 ± 0.0814 | 4.71 ± 0.206 | 1.28 ± 0.121 | ≤ 0.75 | 0.5 |  |  |  |  |  |  |  |  | Stability RE % ([2]; Automatic (24 h), plasma QC 3.125 ng/mL): −0.82%; Stability RE % ([2]; Automatic (24 h), plasma QC 25 ng/mL): −7.41%; Stability RE % ([2]; Freeze (−80°C for 30 d), plasma QC 3.125 ng/mL): −0.68%; Stability RE % ([2]; Freeze (−80°C for 30 d), plasma QC 25 ng/mL): −9.65%; Stability RE % ([2]; Freeze-thaw (three times), plasma QC 3.125 ng/mL): −2.04%; Stability RE % ([2]; Freeze-thaw (three times), plasma QC 25 ng/mL): −10.40%; Stability RE % ([2]; Room temperature (8 h), plasma QC 3.125 ng/mL): −0.52%; Stability RE % ([2]; Room temperature (8 h), plasma QC 25 ng/mL): −6.67%
COCC12CN(C)C3C4C(OC)C1C3(C(OC)CC2O)C1CC2(O)C(OC)C(O)C4(OC(C)=O)C1C2OC(=O)c1ccccc1 (stereo not shown) [Mesaconitine] | 8.11 ± 0.46 | 7.7 ± 0.411 | 5.35 ± 0.562 | 5.69 ± 0.188 | 7.03 ± 0.479 | 1.71 ± 0.0446 | ≤ 0.75 | 0.75 | −9.09 | −9.89 | −7.23 | −9.46 | −1.29 | −7.50 | 0.97 | −12.74 | 
